“And” between values parts separate entries of the source, which are not always exact repeats. Identical values can stand only once.
Tests used:
Assay type in all cases: in vivo, human
[1] = Phase 1A study NCT02740985: safety, maximum tolerated dose; conditions: monotherapy, PO daily, patients with treatment refractory solid tumours
Experimental: (§1) The first-in-human trial, NCT02740985, was conducted to assess safety, PK and pharmacodynamic activity of AZD4635 as monotherapy and in combination with durvalumab in patients with treatment refractory solid tumours. Pre-dose and on-treatment tumour biopsies were collected from 7 subjects who were treated with AZD4635 monotherapy at or below the maximum tolerated dose (MTD) of 100 mg PO daily.

prostate cancer = experiment: Progression-free survival of prostate cancer patients in phase 1A study of AZD4635, grouped by group I signature
Experimental: To derive signatures geared toward adenosine-drive prostate cancers, time-series of samples from 96 patients prostate cancer patients enrolled in the phase 1A study of AZD4635 (NCT02740985) were collected and analyzed for gene expression by using the NanoString nCounter FLEX Analysis System and the commercially available 770-gene, human PanCancer Immune Profiling Panel (NanoString). The time series was up to 120 weeks for some patients. Signatures were tested for their concordance with progression-free survival (PFS), where progression is objective disease progression (by PSA recurrence or RECIST 1.1 criteria), or death by any cause in the absence of progression. (A concordance index of 0.5 represents random chance; a concordance index of 1 represents perfect prediction.) The concordance index, in this context, is a measure of how successful a given signature is in predicting PFS; that is, if stratifying patients into ‘adenosine-low’ and ‘adenosine-high’ groups correlated with the adenosine-high group having a longer median PFS than the adenosine-low group (patients with tumors that are more strongly adenosine drive should benefit more from treatment with the A2AR antagonist AZD4635). The stronger that correlation, the greater the concordance index.

[2] = system: adenosine signalling signature (A2AR); experiment: Phase 1A study NCT02740985: adenosine signalling signature scores in pre-dose and on-treatment tumour biopsies
From the text: We scored transcriptome data with the signature using GSVA (60). This method is robust to outlying genes expressed at different orders of magnitude and generates scores amenable to downstream statistical interpretation. We observe a strong linear correlation between signatures representing immune processes/features and tumour purity in TCGA (see FIG. 7). To account for this bias we adjust the signature scores for tumour purity by fitting a linear regression derived from all samples in TCGA versus tumour purity and then applying the following correction:
Immune cell infiltrates were determined with an SVR approach based on CIBERSORT (36) to define relative immune cell abundance. To study the association of adenosine with CD8^+ T cell infiltration we consider CD8 high tumours to be greater than the median of CD8A expression across all samples. All other cell or cell-state signatures were scored using GSVA. NK cell exhaustion was determined using expression of KIR3DL1, KIR3DL2, IL2RA, IL15RA, HAVCR2 and EOMES. Cytotoxicity was determined using the expression of: NKG7, CST7, PRF1, GZMA, GZMB and IFNG. CD8 Exhaustion was determined using the signature provided in (Danaher et al. 2017). IFNG signalling was determined using the signature presented by (Ayers et al. 2017).
as §1
Total RNA was extracted from tumour tissue macrodissected from […] thick FFPE sections using the miRNeasy FFPE Kit (QIAGEN). RNA integrity and quantity were assessed on the TapeStation 2200 using the RNA ScreenTape System (Agilent). […]
The RNA was subsequently analyzed for gene expression using the NanoString nCounter FLEX Analysis System and the commercially available 770-gene, human PanCancer Immune Profiling Panel (NanoString). […]

Cc1cc(-c2nnc(N)nc2-c2ccc(F)cc2)cc(Cl)n1 [AZD4635, 6-(2-chloro-6-methylpyridin-4-yl)-5-(4-fluorophenyl)-1,2,4-triazin-3-amine]
maximum tolerated dose (MTD) [1]: 100 mg | median PFS, adenosine-low group (prostate cancer; p=0.008 vs adenosine-high): 12 weeks | median PFS, adenosine-high group (prostate cancer; p=0.008 vs adenosine-low): 34 weeks | patients with reduced adenosine scores who also had increases in gene expression signatures of cytolytic activity and IFNG signalling ([2]; of the 5 patients with reduced scores, out of 7 treated): 4 patients | patients with reduced adenosine signalling scores ([2]; solid tumours, AZD4635 monotherapy once daily at or below MTD, on-treatment vs pre-dose biopsy): 5 of the 7 and 5 of 7 | share of patients with reduced adenosine signalling scores ([2]; solid tumours, AZD4635 once daily, 7 patients): 70%

— patent publication US20230332239A1, “METHODS OF TREATING CANCER” (ASTRAZENECA AB, priority 2019, published 2023)
